From the supplement of paper PMC10307832

Tests used:
Assay in all cases: relative viability (nuclei count vs DMSO), 5 days (fraction); higher = more cells survive
Doxorubicin + Linsitinib = compound: COc1cccc2c1C(=O)c1c(O)c3c(c(O)c1C2=O)C[C@@](O)(C(=O)CO)C[C@@H]3O[C@H]1C[C@H](N)[C@H](O)[C@H](C)O1 [Doxorubicin] + C[C@]1(O)C[C@@H](c2nc(-c3ccc4ccc(-c5ccccc5)nc4c3)c3c(N)nccn32)C1 [Linsitinib] (partner 1 µM)
Summary of the method: (§1)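 Relative viability equals treated-well nuclei counts divided by vehicle-well nuclei counts. Counts came from 4× images of lung cancer cell lines grown in 1536-well plates for 5 days after pin-tool dosing on the day after seeding. Dosing used one drug alone or a fixed anchor-drug dose plus five library-drug doses (not always all listed) in √10 steps, and values are medians of duplicate plates.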

BAY61-3606 + Navitoclax = compound: COC1=C(C=C(C=C1)C2=CC3=NC=CN3C(=N2)NC4=C(C=CC=N4)C(=O)N)OC [BAY61-3606] + CC1(C)CCC(c2ccc(Cl)cc2)=C(CN2CCN(c3ccc(C(=O)NS(=O)(=O)c4ccc(N[C@H](CCN5CCOCC5)CSc5ccccc5)c(S(=O)(=O)C(F)(F)F)c4)cc3)CC2)C1 [Navitoclax] (partner 0.5 µM)
Summary of the method: as §1

BAY61-3606 + Palbociclib = compound: COC1=C(C=C(C=C1)C2=CC3=NC=CN3C(=N2)NC4=C(C=CC=N4)C(=O)N)OC [BAY61-3606] + CC(=O)c1c(C)c2cnc(Nc3ccc(N4CCNCC4)cn3)nc2n(C2CCCC2)c1=O [Palbociclib] (partner 0.5 µM)
Summary of the method: as §1

Doxorubicin + Crizotinib = compound: COc1cccc2c1C(=O)c1c(O)c3c(c(O)c1C2=O)C[C@@](O)(C(=O)CO)C[C@@H]3O[C@H]1C[C@H](N)[C@H](O)[C@H](C)O1 [Doxorubicin] + C[C@@H](Oc1cc(-c2cnn(C3CCNCC3)c2)cnc1N)c1c(Cl)ccc(F)c1Cl [Crizotinib] (partner 1 µM)
Summary of the method: as §1

| Cell Line | relative viability (Doxorubicin + Linsitinib; first compound 0.001 µM) | relative viability (Doxorubicin + Linsitinib; first compound 0.003162 µM) | relative viability (Doxorubicin + Linsitinib; first compound 0.01 µM) | relative viability (Doxorubicin + Linsitinib; first compound 0.03162 µM) | relative viability (Doxorubicin + Linsitinib; first compound 0.1 µM) | relative viability (BAY61-3606 + Navitoclax; first compound 0.02 µM) | relative viability (BAY61-3606 + Navitoclax; first compound 0.06325 µM) | relative viability (BAY61-3606 + Navitoclax; first compound 0.2 µM) | relative viability (BAY61-3606 + Navitoclax; first compound 0.6325 µM) | relative viability (BAY61-3606 + Navitoclax; first compound 2 µM) | relative viability (BAY61-3606 + Palbociclib; first compound 0.02 µM) | relative viability (BAY61-3606 + Palbociclib; first compound 0.06325 µM) | relative viability (BAY61-3606 + Palbociclib; first compound 0.2 µM) | relative viability (BAY61-3606 + Palbociclib; first compound 0.6325 µM) | relative viability (BAY61-3606 + Palbociclib; first compound 2 µM) | relative viability (Doxorubicin + Crizotinib; first compound 0.001 µM) | relative viability (Doxorubicin + Crizotinib; first compound 0.003162 µM) | relative viability (Doxorubicin + Crizotinib; first compound 0.01 µM) | relative viability (Doxorubicin + Crizotinib; first compound 0.03162 µM) | relative viability (Doxorubicin + Crizotinib; first compound 0.1 µM) |
| --- | --- | --- | --- | --- | --- | --- | --- | --- | --- | --- | --- | --- | --- | --- | --- | --- | --- | --- | --- | --- |
| NCI-H1792 | 0.563 | 0.612 | 0.543 | 0.455 | 0.474 | 0.663 | 0.637 | 0.646 | 0.596 | 0.696 | 0.677 | 0.61 | 0.659 | 0.747 | 0.698 | 0.975 | 0.974 | 1.01 | 0.924 | 0.943 |
| NCI-H1915 | 1.14 | 1.03 | 1.08 | 1.05 | 1.1 | 0.775 | 0.779 | 0.715 | 0.755 | 0.765 | 0.54 | 0.565 | 0.537 | 0.551 | 0.375 | 0.917 | 0.915 | 0.871 | 0.889 | 0.952 |
| NCI-H1944 | 1.17 | 1.23 | 1.34 | 1.16 | 1.3 | 1.12 | 1.1 | 1.01 | 1.02 | 1.04 | 0.344 | 0.313 | 0.31 | 0.338 | 0.213 | 1.09 | 1.16 | 1.03 | 1 | 1.14 |
| NCI-H1975 | 1.09 | 1.02 | 0.845 | 0.572 | 0.464 | 1.16 | 0.937 | 1.02 | 1.04 | 0.72 | 0.616 | 0.628 | 0.526 | 0.504 | 0.347 | 0.853 | 1.09 | 0.946 | 0.431 | 0.423 |
